# Data reported in patent publication US20250304596A1, “PYRAZINE DERIVATIVES AND USES THEREOF” (FOGHORN THERAPEUTICS INC., priority 2022, published 2025).
# What was measured:
# [1] = target: T1, HiBit-BRM fusion protein (Homo sapiens, UniProt P51531); assay: HiBiT-BRM cell-based degradation assay (Nano-Glo HiBiT Lytic Detection, 24 h); settings: stable HeLa cell line expressing HiBiT-BRM; for DC50: read-out: BRM HiBit Degradation IC50
# T1 construct: expressed in transfected cells
# Summary of the method: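 A stable HeLa line expressing HiBiT-BRM was treated for 24 h with compound in a 10-point, 3-fold series (30 μM final top dose). Remaining HiBiT-BRM was read by lytic LgBiT complementation luminescence. % degradation was normalised to DMSO (high control) and 2 μM reference BRM/BRG1 degrader (low control).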
# [2] = target: T2, HiBit-BRG1 fusion protein (Homo sapiens, UniProt P51532); assay: HiBiT-BRG1 cell-based degradation assay (Nano-Glo HiBiT Lytic Detection, 24 h); settings: stable HeLa cell line expressing HiBit-BRG1 and LgBit; for Dmax: read-out: BRG1 HiBit Degradation Maximum (%); for DC50: read-out: BRMG1 HiBit Degradation IC50
# T2 construct: expressed in transfected cells
# T2 sequence (P51532 whole entry, the tested form may be a part): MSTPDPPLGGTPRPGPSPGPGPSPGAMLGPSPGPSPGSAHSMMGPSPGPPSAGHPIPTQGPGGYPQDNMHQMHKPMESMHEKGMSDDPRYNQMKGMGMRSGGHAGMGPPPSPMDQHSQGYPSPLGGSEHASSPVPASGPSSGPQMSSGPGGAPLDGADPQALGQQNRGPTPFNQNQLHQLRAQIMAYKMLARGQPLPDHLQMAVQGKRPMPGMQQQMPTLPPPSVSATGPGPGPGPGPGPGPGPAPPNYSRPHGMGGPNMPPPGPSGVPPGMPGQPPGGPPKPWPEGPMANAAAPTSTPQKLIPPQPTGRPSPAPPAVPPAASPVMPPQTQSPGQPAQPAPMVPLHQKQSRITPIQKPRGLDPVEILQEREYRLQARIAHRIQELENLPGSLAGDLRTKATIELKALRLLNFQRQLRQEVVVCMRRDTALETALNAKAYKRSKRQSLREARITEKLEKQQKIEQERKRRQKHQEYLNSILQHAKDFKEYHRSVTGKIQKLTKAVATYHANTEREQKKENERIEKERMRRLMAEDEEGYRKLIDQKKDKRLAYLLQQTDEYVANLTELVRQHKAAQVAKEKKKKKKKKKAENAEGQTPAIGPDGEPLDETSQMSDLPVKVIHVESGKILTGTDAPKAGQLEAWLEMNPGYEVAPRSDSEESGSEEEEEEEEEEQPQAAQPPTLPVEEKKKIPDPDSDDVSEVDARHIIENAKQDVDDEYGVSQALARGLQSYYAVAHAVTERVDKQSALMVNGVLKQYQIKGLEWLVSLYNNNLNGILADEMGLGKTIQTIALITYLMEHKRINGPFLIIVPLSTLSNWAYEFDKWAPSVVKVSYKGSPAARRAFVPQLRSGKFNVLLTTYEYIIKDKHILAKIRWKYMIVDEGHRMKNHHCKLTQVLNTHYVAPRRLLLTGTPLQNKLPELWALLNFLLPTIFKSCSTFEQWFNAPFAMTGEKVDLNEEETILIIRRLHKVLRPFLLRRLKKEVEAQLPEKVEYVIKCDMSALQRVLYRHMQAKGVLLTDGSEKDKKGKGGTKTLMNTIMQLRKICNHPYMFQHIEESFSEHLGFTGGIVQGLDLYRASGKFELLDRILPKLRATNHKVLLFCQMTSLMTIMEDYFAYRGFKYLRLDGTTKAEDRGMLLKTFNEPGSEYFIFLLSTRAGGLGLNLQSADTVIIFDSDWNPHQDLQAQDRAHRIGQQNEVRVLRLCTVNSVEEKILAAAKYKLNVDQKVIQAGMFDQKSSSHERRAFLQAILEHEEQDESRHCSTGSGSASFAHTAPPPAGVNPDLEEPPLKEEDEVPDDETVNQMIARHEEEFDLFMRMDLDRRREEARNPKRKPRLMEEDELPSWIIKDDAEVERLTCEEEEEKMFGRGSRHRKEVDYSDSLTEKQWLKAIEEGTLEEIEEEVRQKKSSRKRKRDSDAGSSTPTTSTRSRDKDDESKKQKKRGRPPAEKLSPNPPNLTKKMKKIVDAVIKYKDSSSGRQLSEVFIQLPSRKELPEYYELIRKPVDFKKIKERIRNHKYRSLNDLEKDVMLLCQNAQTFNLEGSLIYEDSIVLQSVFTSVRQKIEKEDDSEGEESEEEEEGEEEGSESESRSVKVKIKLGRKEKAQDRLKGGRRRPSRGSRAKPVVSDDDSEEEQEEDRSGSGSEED
# Summary of the method: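 HeLa cells stably expressing HiBit-BRG1 and LgBit, treated 24 h with 3-fold dilutions (10 points, duplicate, 30 μM final top dose). Luminescence read after Nano-Glo HiBiT lytic reagent; % degradation scaled between DMSO (high) and 2 μM reference BRM/BRG1 degrader (low control).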
# T1 sequence (P51531 whole entry, the tested form may be a part): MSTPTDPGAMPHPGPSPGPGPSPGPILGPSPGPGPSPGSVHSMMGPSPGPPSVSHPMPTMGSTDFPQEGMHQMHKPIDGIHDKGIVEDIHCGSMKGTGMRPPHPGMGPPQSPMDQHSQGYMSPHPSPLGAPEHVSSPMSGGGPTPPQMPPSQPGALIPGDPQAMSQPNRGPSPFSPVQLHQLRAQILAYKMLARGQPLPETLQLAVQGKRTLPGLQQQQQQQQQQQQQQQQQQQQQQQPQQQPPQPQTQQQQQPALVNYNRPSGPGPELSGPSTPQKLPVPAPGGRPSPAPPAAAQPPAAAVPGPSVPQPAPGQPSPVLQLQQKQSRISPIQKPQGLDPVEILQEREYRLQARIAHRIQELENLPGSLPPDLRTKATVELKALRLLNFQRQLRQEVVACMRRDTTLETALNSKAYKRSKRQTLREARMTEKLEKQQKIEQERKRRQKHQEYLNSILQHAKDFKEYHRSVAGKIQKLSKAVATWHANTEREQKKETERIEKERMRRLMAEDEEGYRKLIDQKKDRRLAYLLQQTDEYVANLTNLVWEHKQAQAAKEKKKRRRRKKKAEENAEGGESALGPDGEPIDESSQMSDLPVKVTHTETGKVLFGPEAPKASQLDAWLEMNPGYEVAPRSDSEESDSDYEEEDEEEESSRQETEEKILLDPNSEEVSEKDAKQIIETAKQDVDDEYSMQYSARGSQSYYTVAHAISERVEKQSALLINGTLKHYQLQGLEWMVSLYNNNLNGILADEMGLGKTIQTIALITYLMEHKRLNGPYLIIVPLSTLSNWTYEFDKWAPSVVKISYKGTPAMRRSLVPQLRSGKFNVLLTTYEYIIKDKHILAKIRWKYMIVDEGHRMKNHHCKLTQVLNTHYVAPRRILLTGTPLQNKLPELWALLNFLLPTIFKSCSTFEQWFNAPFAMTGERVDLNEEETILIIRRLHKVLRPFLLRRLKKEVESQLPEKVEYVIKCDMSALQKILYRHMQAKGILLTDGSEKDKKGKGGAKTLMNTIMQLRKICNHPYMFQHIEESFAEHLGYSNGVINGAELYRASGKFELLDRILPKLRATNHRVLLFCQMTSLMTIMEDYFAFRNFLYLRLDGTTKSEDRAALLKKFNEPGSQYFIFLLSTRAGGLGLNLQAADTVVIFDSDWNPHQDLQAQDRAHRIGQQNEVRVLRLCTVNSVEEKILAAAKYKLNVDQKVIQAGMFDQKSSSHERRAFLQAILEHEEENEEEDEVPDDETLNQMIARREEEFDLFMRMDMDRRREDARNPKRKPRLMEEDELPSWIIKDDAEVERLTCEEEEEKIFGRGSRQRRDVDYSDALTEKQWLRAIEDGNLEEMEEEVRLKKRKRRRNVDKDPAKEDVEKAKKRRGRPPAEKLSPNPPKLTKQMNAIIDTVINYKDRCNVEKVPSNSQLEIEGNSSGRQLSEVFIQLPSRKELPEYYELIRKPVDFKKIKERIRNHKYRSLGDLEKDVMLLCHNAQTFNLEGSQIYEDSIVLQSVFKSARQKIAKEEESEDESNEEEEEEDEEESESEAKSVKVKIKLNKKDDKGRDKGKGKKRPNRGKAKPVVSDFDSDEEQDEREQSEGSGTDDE
DC50 [1],Dmax [2],DC50 [2],Structure (SMILES),BRM HiBit Degradation Maximum (%) [1]
< 10 nM,< 50%,–,"Cc1ncsc1-c1ccc([C@H](C)NC(=O)[C@@H]2C[C@@H](O)CN2C(=O)[C@@H](c2cc(N3CC[C@H](c4cc5nnc(-c6ccccc6O)cc5s4)C3)no2)C(C)C)cc1 [Compound 73, (2S,4R)-4-hydroxy-1-((R)-2-(3-((S)-3-(3-(2-hydroxyphenyl)thieno[3,2-c]pyridazin-6-yl)pyrrolidin-1-yl)isoxazol-5-yl)-3-methylbutanoyl)-N-((S)-1-(4-(4-methylthiazol-5-yl)phenyl)ethyl)pyrrolidine-2-carboxamide]",A (“A” indicates maximum degradation ≥75%)
< 10 nM,> 75%,> 10 nM,"Cc1ncsc1-c1ccc([C@H](C)NC(=O)[C@@H]2C[C@@H](O)CN2C(=O)[C@@H](c2cc(-c3cnc(N4CC5(CC(c6cc7nnc(-c8ccccc8O)cc7s6)C5)C4)nc3)no2)C(C)C)cc1 [Compound 17, (2S,4R)-4-hydroxy-1-((R)-2-(3-(2-(6-(3-(2-hydroxyphenyl)thieno[3,2-c]pyridazin-6-yl)-2-azaspiro[3.3]heptan-2-yl)pyrimidin-5-yl)isoxazol-5-yl)-3-methylbutanoyl)-N-((S)-1-(4-(4-methylthiazol-5-yl)phenyl)ethyl)pyrrolidine-2-carboxamide]",A (“A” indicates maximum degradation ≥75%)
< 10 nM,> 75%,> 10 nM,"Cc1nc(N2CCC(c3sc4nnc(-c5ccccc5O)cc4c3C)CC2)ccc1-c1noc([C@H](C(=O)N2C[C@H](O)C[C@H]2C(=O)N[C@@H](C)c2ccc(-c3scnc3C)cc2)C(C)C)c1C [Compound 92, (2S,4R)-4-hydroxy-1-((R)-2-(3-(6-(4-(3-(2-hydroxyphenyl)-5-methylthieno[2,3-c]pyridazin-6-yl)piperidin-1-yl)-2-methylpyridin-3-yl)-4-methylisoxazol-5-yl)-3-methylbutanoyl)-N-((S)-1-(4-(4-methylthiazol-5-yl)phenyl)ethyl)pyrrolidine-2-carboxamide]",A (“A” indicates maximum degradation ≥75%)
< 10 nM,< 50%,> 1000 nM,"Cc1ncsc1-c1ccc([C@H](C)NC(=O)[C@@H]2C[C@@H](O)CN2C(=O)[C@@H](c2cc(-c3cnc(N4CCC(c5sc6nnc(-c7ccccc7O)cc6c5C)CC4)cn3)no2)C(C)C)cc1 [Compound 28, (2S,4R)-4-hydroxy-1-((R)-2-(3-(5-(4-(3-(2-hydroxyphenyl)-5-methylthieno[2,3-c]pyridazin-6-yl)piperidin-1-yl)pyrazin-2-yl)isoxazol-5-yl)-3-methylbutanoyl)-N-((S)-1-(4-(4-methylthiazol-5-yl)phenyl)ethyl)pyrrolidine-2-carboxamide]",A (“A” indicates maximum degradation ≥75%)
< 10 nM,> 75%,> 10 nM,"Cc1ncsc1-c1ccc([C@H](C)NC(=O)[C@@H]2C[C@@H](O)CN2C(=O)[C@@H](c2cc(N3CC4(CCC(c5sc6nnc(-c7ccccc7O)cc6c5C)CC4)C3)no2)C(C)C)cc1 [Compound 88, (2S,4R)-4-hydroxy-1-((R)-2-(3-(7-(3-(2-hydroxyphenyl)-5-methylthieno[2,3-c]pyridazin-6-yl)-2-azaspiro[3.5]nonan-2-yl)isoxazol-5-yl)-3-methylbutanoyl)-N-((S)-1-(4-(4-methylthiazol-5-yl)phenyl)ethyl)pyrrolidine-2-carboxamide]",A (“A” indicates maximum degradation ≥75%)
< 10 nM,> 50%,> 10 nM,"Cc1nc(N2CCC(c3sc4nnc(-c5ccccc5O)cc4c3C)CC2)ccc1-c1cc([C@H](C(=O)N2C[C@H](O)C[C@H]2C(=O)N[C@@H](C)c2ccc(-c3scnc3C)cc2)C(C)C)on1 [Compound 42, (2S,4R)-4-hydroxy-1-((R)-2-(3-(6-(4-(3-(2-hydroxyphenyl)-5-methylthieno[2,3-c]pyridazin-6-yl)piperidin-1-yl)-2-methylpyridin-3-yl)isoxazol-5-yl)-3-methylbutanoyl)-N-((S)-1-(4-(4-methylthiazol-5-yl)phenyl)ethyl)pyrrolidine-2-carboxamide]",A (“A” indicates maximum degradation ≥75%)
< 10 nM,< 50%,> 1000 nM,"Cc1ncsc1-c1ccc([C@H](C)NC(=O)[C@@H]2C[C@@H](O)CN2C(=O)[C@@H](c2cc(-c3cnc(N4CCC(c5sc6nnc(-c7ccccc7O)cc6c5C)[C@@H](C)C4)nc3)no2)C(C)C)cc1 (stereo in doubt) [Compound 35, (2S,4R)-4-hydroxy-1-((R)-2-(3-(2-((3R,4R)-4-(3-(2-hydroxyphenyl)-5-methylthieno[2,3-c]pyridazin-6-yl)-3-methylpiperidin-1-yl)pyrimidin-5-yl)isoxazol-5-yl)-3-methylbutanoyl)-N-((S)-1-(4-(4-methylthiazol-5-yl)phenyl)ethyl)pyrrolidine-2-carboxamide]",A (“A” indicates maximum degradation ≥75%)
< 10 nM,< 50%,> 1000 nM,"Cc1ncsc1-c1ccc([C@H](C)NC(=O)[C@@H]2C[C@@H](O)CN2C(=O)[C@@H](c2cc(-c3ccc(N4CCC(c5sc6nnc(-c7ccccc7O)cc6c5C)CC4)nn3)no2)C(C)C)cc1 [Compound 57, (2S,4R)-4-hydroxy-1-((R)-2-(3-(6-(4-(3-(2-hydroxyphenyl)-5-methylthieno[2,3-c]pyridazin-6-yl)piperidin-1-yl)pyridazin-3-yl)isoxazol-5-yl)-3-methylbutanoyl)-N-((S)-1-(4-(4-methylthiazol-5-yl)phenyl)ethyl)pyrrolidine-2-carboxamide]",A (“A” indicates maximum degradation ≥75%)
> 1000 nM,< 50%,> 1000 nM,"Cc1ncsc1-c1ccc([C@H](C)NC(=O)[C@@H]2C[C@@H](O)CN2C(=O)C(c2cc(Oc3nccc(N4CCC(c5sc6nnc(-c7ccccc7O)cc6c5C)CC4)n3)no2)C(C)C)cc1 (single isomer, unassigned) [Compound 61, (2S,4R)-4-hydroxy-1-[(2R*)-2-{3-[(4-{4-[3-(2-hydroxyphenyl)-5-methylthieno[2,3-c]pyridazin-6-yl]piperidin-1-yl}pyrimidin-2-yl)oxy]-1,2-oxazol-5-yl}-3-methylbutanoyl]-N-[(1S)-1-[4-(4-methyl-1,3-thiazol-5-yl)phenyl]ethyl]pyrrolidine-2-carboxamide]",C (“C” indicates maximum degradation <50%)
< 10 nM,< 50%,–,"Cc1ncsc1-c1ccc([C@H](C)NC(=O)[C@@H]2C[C@@H](O)CN2C(=O)[C@@H](c2cc(N3CC4(CC(c5sc6nnc(-c7ccccc7O)cc6c5C5CC5)C4)C3)no2)C(C)C)cc1 [Compound 87, (2S,4R)-1-[(2R)-2-(3-{6-[5-cyclopropyl-3-(2-hydroxyphenyl)thieno[2,3-c]pyridazin-6-yl]-2-azaspiro[3.3]heptan-2-yl}-1,2-oxazol-5-yl)-3-methylbutanoyl]-4-hydroxy-N-[(1S)-1-[4-(4-methyl-1,3-thiazol-5-yl)phenyl]ethyl]pyrrolidine-2-carboxamide]",A (“A” indicates maximum degradation ≥75%)
